In US11096977B2, “Development of a standardized and effect-optimized herbal extract of Wedelia chinensis and its use for treating disease” (Academia Sinica, priority 2015, dated 2021):

Experiments:
[1] = system: DU145 cells; assay: CyQUANT direct cell proliferation assay, DU145; type: cell-based; conditions: WCE 25 μg/ml or 10 nM docetaxel, 48 h
Experimental: (§1) After 48 h, viable cell numbers were determined using CyQUANT direct cell proliferation assay.

[2] = system: PC-3 AR-negative prostate cancer cells; assay: murine model for androgen independent prostate cancer, orthotopic PC-3 luciferase cells; type: in vivo, mice; conditions: daily WCE by gavage, weekly docetaxel into tail vein; 8 week course
Experimental: Tumor growth was measured weekly by bioluminescent imaging. Animals were also weighed weekly.

[3] = system: PC-3 cells; assay: CyQUANT direct cell proliferation assay, PC-3; type: cell-based; conditions: WCE 25 μg/ml or 10 nM docetaxel, 48 h
Experimental: as §1

[4] = system: LNCaP-CR cells; assay: growth rate of LNCaP-CR cells; type: cell-based; conditions: 20 μg/ml enzalutamide
[5] = system: LNCaP cells; assay: growth rate of LNCaP cells; type: cell-based; conditions: 20 μg/ml enzalutamide

| Structure (SMILES) | growth of DU145 cells (FIG. 3B) [1] | body weight (FIG. 4B) [2] | growth of PC-3 cells (FIG. 3A) [3] | growth of LNCaP-CR cells (FIG. 2D) [4] | growth of LNCaP cells (FIG. 2C) [5] |
| --- | --- | --- | --- | --- | --- |
| CC(=O)O[C@@]12CO[C@@H]1C[C@H](O)[C@@]1(C)C(=O)[C@H](O)C3=C(C)[C@@H](OC(=O)[C@H](O)[C@@H](NC(=O)OC(C)(C)C)c4ccccc4)C[C@@](O)([C@@H](OC(=O)c4ccccc4)[C@H]21)C3(C)C [docetaxel] | inhibited growth | large decrease in body weight | inhibited growth |  |  |
| CNC(=O)c1ccc(N2C(=S)N(c3ccc(C#N)c(C(F)(F)F)c3)C(=O)C2(C)C)cc1F [enzalutamide] |  |  |  | significantly less growth inhibition | significantly inhibited the growth |
